The values that follow come from PubChem BioAssay (NCI).

What all share (experiment): DTP human tumour cell line panel, 48 h
The subject of test [1] is LXFL 529 NSCLC.
Test [2] relates to DMS 273 small cell lung.
Test [3] has as its system DLD-1 colon.
The test system of test [4] is HOP-18 NSCLC.
Test [5] has as its system TK-10 renal.
The test system of test [6] is SNB-78 CNS.
Test [7] deals with M19-MEL melanoma.
Test [8] relates to KM20L2 colon.
The subject of test [9] is OVCAR-5 ovarian.
The test system of test [10] is HCT-116 colon.
For test [11], the system named is KM12 colon.
Test [12] has as its system XF 498 CNS.
Test [13] has as its system DMS 114 small cell lung.

Values joined by “and” are separate entries in the source; they are usually repeats but may differ in a detail not shown here. Equal values may be shown once.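 Each compound was tested at five concentrations against cells in 96-well plates for 48 hours. The concentration for 50% growth inhibition is given as GI50. TGI: total growth inhibition.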 Bounds are passed on as bounds.

The TGI is the concentration giving total growth inhibition. High values mean lower sensitivity of the cells, low ones greater sensitivity of the cells. For the compound `N#C/C(=C\c1ccc(O)c(O)c1)c1c(C#N)c(N)nn1-c1ccccc1`, the TGI was 92.5 µM in test [1]; 18.5 µM in test [2]; above 100 µM in test [3]; 29.1 µM in test [4]; above 100 µM in test [5]; above 100 µM in test [6]. The TGI in [7] is 94.6 µM; in test [8], above 100 µM; in test [9], above 100 µM; in test [10], 19.6 µM; in test [11], above 100 µM.

`CCN(CC)CC1CCCCN1CC(=O)N1c2cc(Cl)ccc2NC(=O)CC1C` (centres undefined): the TGI in test [12], in [1], in test [2], in test [3], in test [5] and in [6] was above 100 µM each time. The TGI in [13], in [7], in test [8], in [9], in test [10] and in [11] was above 100 µM throughout.

For the compound `COc1ccc(CN(CCN(C)C)c2ccccn2)cc1` (tested in a mixture with another compound), the total growth inhibition concentration (TGI) in test [12], in [1], in test [3], in test [4], in [5] and in test [6] was above 100 µM in each case. The TGI in test [13], in test [8], in [9] and in test [11] was above 100 µM each time.

Regarding `O=[N+]([O-])c1cc(Br)cc2cc(Cl)cnc12`, the TGI in test [5], in test [9], in test [10] and in [11] was above 100 µM each time.

For `COc1ccccc1-n1cnc2c1NC(C)(C)N=C2C(N)=O`, the TGI in test [5], in [9], in test [10] and in test [11] was above 100 µM throughout.

In the case of `CC(=O)O[C@@H]1[C@H](OC2CCCCC2(c2ccccc2)c2ccccc2)O[N+]([O-])=CC12CCCCC2` (some centres undefined), the TGI was 30.4 µM in test [5], 29.4 µM in test [9], 32 µM in test [10] and 31.2 µM in test [11].

As for `O=c1oc2ccc([N+](=O)[O-])cc2nc1/C=C(\O)c1ccccc1`, the TGI in [5] is 93.4 µM; in test [9], above 100 µM; in [10], above 100 µM; in test [11], above 100 µM.

In the case of `Oc1cc(O)c2c(c1)O[C@H](c1ccc(O)c(O)c1)[C@@H](O)C2`, the TGI in test [5], in test [9], in test [10] and in test [11] was above 100 µM throughout.

Broadly, the GI50 is the concentration at which growth is held to half of that of the control. With `COc1ccc(/C=C2/N=C(N/N=C\C(O)C(O)C(O)CO)NC2=O)cc1` (centres undefined), the TGI in test [5], in test [9], in test [10] and in [11] was above 100 µM each time. Also, in test [11], the GI50 was > 100 µM and 26.9 µM.

`CC(C)C[S+]1C2=C([O-])CC(C)(C)CC2=Nc2ccccc21` (centres undefined): the TGI in test [5], in test [9], in [10] and in [11] was above 100 µM in each case.

On to `COc1ccc(C=Nc2ccc(-c3nc4ccccc4s3)cc2)cc1OC`, for which the TGI in [5] was 69 µM; in test [9] it was above 100 µM; in test [10], above 100 µM; in [11] it was above 100 µM.

On to `COc1ccc(-c2nc(-c3ccc(OC)cc3)n(-c3ccccc3)n2)cc1`, for which the TGI in test [5], in test [9], in test [10] and in [11] was above 100 µM throughout.

Regarding `O=C1c2ccccc2N=C(c2cc3c(cc2Cl)Sc2nccn2S3(=O)=O)OS(=O)(=O)N1c1ccccc1`, the TGI in [5] is above 100 µM; in test [9], 78.8 µM; in test [10], 31.5 µM; in test [11] it was above 100 µM.

Regarding `O=C(O)c1cc(N=Nc2ccc([N+](=O)[O-])cc2)ccc1O`, the TGI in test [5] was 70 µM; in test [9], above 100 µM; in [10], above 100 µM; in test [11], above 100 µM.

For the compound `CC1=C(C(=O)NNC(=O)Cc2ccccc2)CC(C(=O)NNC(=O)Cc2ccccc2)=C(C)N1`, the TGI in test [5], in test [9], in test [10] and in test [11] was above 100 µM each time.

As to `Cc1sc2c(c1C)C(=O)c1cccn1-2`, the TGI in test [5], in test [9], in test [10] and in [11] was above 100 µM each time.

Consider `CC(=O)Nc1ccc(-c2nnc(SCC(=O)Nc3cccc(C)c3)o2)cc1`, for which the TGI in [1] turned out to be 22.8 µM; in test [2], 23 µM; in test [3] it was 23.1 µM; in test [4], 29.7 µM; in test [5] it was 29.2 µM; in [6] it was 31.1 µM. The TGI in test [13] was 6.94 µM; in [7], 24.9 µM; in test [8], 22 µM; in test [9], 26.7 µM; in [10], 24.1 µM; in test [11], 22.6 µM.

On to `CCCNC1=C2C[C@@H](C)C[C@@H](OC)[C@@H](OC(=O)CCCN)[C@H](C)/C=C(\C)[C@@H](OC(N)=O)[C@H](OC)/C=C\C=C(/C)C(=O)NC(=CC1=O)C2=O`, for which the TGI stood at 36.1 µM in test [5], 30.5 µM in test [9], 28.3 µM in test [10] and 26.1 µM in test [11].

With `COc1ccc2c(c1)CC[C@@H]1[C@@H]2CC[C@]2(C)/C(=N/OCCN3CCCC3)CC[C@@H]12`, the TGI in [5] was found to be 16.9 µM; in [9], 10.1 µM; in [10] it was 3.43 µM; in test [11] it was 6.31 µM.

With `O=[N+]([O-])c1ccc(CSc2nn(Cc3ccc([N+](=O)[O-])cc3)cc3ncnc2-3)cc1`, the TGI in [5], in [9], in test [10] and in [11] was above 100 µM in each case.

For the compound `Clc1ccc(Nc2ncco2)cc1Cl`, the TGI in test [5], in test [9], in test [10] and in test [11] was above 10 µM each time.

Consider `O=C(O)c1cc2ccccc2c(Cc2c(O)c(C(=O)O)cc3ccccc23)c1O`, for which the TGI in test [5], in [9], in test [10] and in [11] was above 100 µM each time.

As to `c1ccc(-c2cnc(SC(c3ccccc3)c3ccccc3)[nH]2)cc1`, the TGI in test [5], in test [9], in test [10] and in test [11] was above 100 µM each time.

For the compound `CC(=N/NC(=S)N1CCCCCC1)/C(C)=N\NC(=S)N1CCCCCC1`, the TGI is 8.87 µM in test [5], above 23.5 µM in test [9], above 20.8 µM in [10] and 17.9 µM in test [11].

Regarding `CCOC(=O)Oc1cc2ccsc2c2c1c1ccccc1n2C(=O)OCC`, the TGI in test [5], in test [9], in test [10] and in test [11] was above 100 µM in each case.

For `CN(C(=O)[C@H](NC(=O)OCc1ccccc1)c1ccccc1)C1CCCCC1N1CCCC1` (some centres undefined), the TGI in test [5], in test [9], in [10] and in [11] was above 100 µM throughout.

As to `OC1(c2ccccc2)CC2CCC(C1)N2CCCC(O)(c1ccccc1)c1ccccc1` (centres undefined), the TGI is 25.8 µM in test [5], 44.4 µM in test [9], 36.1 µM in test [10] and 30.3 µM in [11].

In the case of `N/C(=N\N=C\c1cc2ccccc2s1)c1cnccn1`, the TGI in test [5], in test [9], in test [10] and in test [11] was above 100 µM each time.

For the compound `CCOC(=O)COc1cc(-c2ccccc2F)nc2cc3c(cc12)OCO3`, the TGI in test [5], in test [9], in [10] and in test [11] was above 100 µM each time.

As to `C/C=C/CC(C(=O)OCC)(N(C)C(=O)OC(C)(C)C)S(=O)(=O)c1ccc(C)cc1` (centres undefined), the TGI in test [5], in test [9], in [10] and in [11] was above 100 µM throughout.

On to `C=C1C(=O)OC2C1CCC(=C)C1CC(O)C(=C)C12` (centres undefined), for which the TGI in test [5] amounted to 20.6 µM; in test [9], 26.3 µM; in test [10], 26.4 µM; in [11] it was 30.4 µM.

With `c1ccc(CN2CCC(=NN3CCCCC3)CC2)cc1`, the TGI in test [5], in [9], in [10] and in test [11] was above 100 µM throughout.

On to `Nc1nc(Cl)cc(NCC2(CO)CCCCC2)n1`, for which the TGI in test [5], in test [9], in test [10] and in test [11] was above 100 µM in each case.

For `CC(C)OP(=O)(OC(C)C)C(=NCCO)NNc1ccc([N+](=O)[O-])cc1`, the TGI in test [12], in test [1], in test [2], in test [3], in test [5] and in [6] was above 100 µM each time. The TGI in [13], in test [7], in test [8], in [9], in test [10] and in test [11] was above 100 µM throughout.

In the case of `CN1C(=O)c2ccccc2C(O)(c2ccccc2)C1(O)c1ccccc1` (centres undefined), the TGI in test [5], in test [9], in test [10] and in [11] was above 100 µM throughout.

Consider `CC(NC(=O)Cc1ccc(OP(=O)(OCc2ccc([N+](=O)[O-])o2)N(C)CCCCCl)cc1)c1ccc(OCC2CCCCC2)c(C(N)=O)c1` (centres undefined), for which the TGI was found to be 15.6 µM in test [5], 8.78 µM in [9], 4.52 µM in test [10] and 5.91 µM in test [11].

In the case of `C/C=C1\CC(C(=O)OCC)CCCCCCC1=O` (centres undefined), the concentration for total growth inhibition (TGI) in [5], in [9], in test [10] and in test [11] was above 100 µM each time.

As for `CC(=O)C(N1CCCCC1)C(O)(C(F)(F)F)C(F)(F)F` (centres undefined), the TGI in test [5], in test [9], in [10] and in test [11] was above 100 µM in each case.

As for `CCO/C(O)=C(/C(=N)N1CCOCC1)C(=O)Nc1cccc(C(F)(F)F)c1`, the TGI in test [5], in test [9], in test [10] and in test [11] was above 100 µM in each case.

Consider `O=Cc1c2c(cc3c1CC1(C3)Cc3cc4c(c(C=O)c3C1)CCCC4)CCCC2`, for which the TGI in test [5], in test [9], in test [10] and in [11] was above 31.6 µM throughout.

`CCOC(=O)NN(C(=O)OCC)c1ccc(N=Nc2ccc(OC)cc2)n1C`: the TGI was above 100 µM in [5], above 100 µM in [9], 34.4 µM in test [10] and 76.9 µM in test [11].

Regarding `CN(C)c1ccc(/C=C/C(=O)c2cc(C(C)(C)C)c(O)c(C(C)(C)C)c2)cc1`, the TGI in test [5] is above 43.1 µM; in [9], above 30.2 µM; in [10], 24.4 µM; in [11] it was above 25.7 µM.

For `COc1ccccc1C1C2=C(COC2=O)Oc2cc3c(cc21)OCO3` (centres undefined), the TGI in test [5] was above 90.5 µM; in [9], above 92.4 µM; in [10], above 100 µM; in [11], above 100 µM.

On to `Cc1ccc(S(=O)(=O)NC(=O)Nc2c(S(N)(=O)=O)cc(S(N)(=O)=O)c(Cl)c2Cl)cc1`, for which the TGI in [5], in test [9], in [10] and in [11] was above 100 µM throughout.
